# Source: paper PMC11695783 (Frontiers in Pharmacology, 2024)
# Values joined by “and” are separate entries in the source; they are usually repeats but may differ in a detail not shown here. Identical values can stand only once.
# What was measured:
# CXCL1 = CXCL1 in BALF of M. pneumoniae-infected mice (ELISA); format: in vivo, BALB/c mice; details: for CXCL1 in BALF (AV): group AV; for CXCL1 in BALF: individual mice
# Experimental: (§1) Adult BALB/c mice (20–22 g) were divided into a control group, a positive group, and compound 16C groups at low (20 mg/kg), medium (40 mg/kg), and high-dose (80 mg/kg) levels and oral and intramuscular tiamulin treatment groups (40 mg/kg). We formulated the above dose range based on the dose at which tiamulin was approved for injection (10–20 mg/kg) and the dose previously reported (45 mg/kg) ([EMA, 1999]; [Xiao et al., 2016]). In summary, we selected similar doses for compound 16C in vivo study. 40 mg/kg was used as an intermediate value, one-half of it as a low dose, and two times of it as a high dose. To prepare the challenge solution, logarithmic phase culture suspensions were centrifuged at 1700 g for 10 min, and the pellets were suspended in sterile PBS to obtain 1 × 10^9 CFU/mL. Before the challenge, mice were anesthetized with tribromoethanol (250 mg/kg, IP). Mice in the control groups were intratracheally inoculated with sterile PBS, whereas mice in the other groups were intratracheally challenged with 50 μL (1 × 10^9 CFU/mL) M. pneumoniae suspension once a day for 3 days. Compound 16C and tiamulin (tiamulin-IM group) dissolved using the method mentioned in pharmacokinetic studies, and the tiamulin fumarate soluble powder was dissolved in ddH2O for oral administration. After the final challenge, antibiotics were administered at low, medium, and high-dose levels (see above) at 10 a.m. and 10 p.m. daily for 4 consecutive days. Normal saline containing 5% DMSO and 5% Tween-80 was administered as control and positive groups by thigh intramuscular injection. To compare the efficacy of compound 16C and tiamulin under the same route of administration, we used the original tiamulin for intramuscular administration in the same formulation. On the other hand, tiamulin fumarate soluble powder, approved for oral administration to treat animal mycoplasma diseases in China, was administered to mice by gavage. Based on a clinical study of lefamulin in community-acquired bacterial pneumonia (CABP), subjects were administered twice a day and the 96 ± 24 h of starting treatment was an essential point for early clinical response (ECR) ([Paukner et al., 2022]). We therefore stopped treatment at 96 h and sampled at 192 h to explore whether the disease worsened after cessation of treatment. Bronchoalveolar lavage fluid (BALF) and lungs were collected at 0, 96, 192 h (Samples of 0 h were collected before starting treatment, and mice were fed ad libitum without drug treatment during 96–192 h) after the first dose, BALF for cytokine and cytological analysis and lung for histopathological evaluation.
# (§2) Bronchoalveolar lavage was performed according to a standardized method ([Van Hoecke et al., 2017]). BALF was obtained following infusion of 0.5 mL PBS via tracheal cannulation into the lung twice (total 1 mL), and 200 µL was used for mycoplasma counts. The remaining BALF was centrifuged at 300 g for 10 min to separate the debris. The supernatants were stored at −80°C, and the debris was resuspended in the same volume of PBS containing red blood cell lysis buffer. A hemocytometer was used to count total cell numbers in BALF, and cell smears (Diff-Quik staining) were prepared to calculate the percentages of neutrophils, macrophages, and lymphocytes. IFN-γ, TNF-α, and CXCL1 levels in BALF samples were assessed using commercial ELISA kits using guidelines recommended by the manufacturer (Elabscience, Wuhan, China). Parallel data for each experimental group at each time point were obtained from six different mice.
# [1] = system: Mycoplasma pneumoniae-infected mice (lung tissue); test: Histopathological assessment of lung tissue (HPS, response and recovery rates) in M. pneumoniae-infected mice; format: in vivo, BALB/c mice; design: HPS value (mean) / HPS: scale not given here; details: for HPS: individual mice
# Experimental: as §1
# Lung tissues were collected at 0, 96, and 192 h following drug administration. Lungs were collected from 6 mice in each group at 96 h and 13–15 mice in each group at 192 h. In addition, the lungs of 8 untreated infected mice were taken at 0 h as initial controls. Lung tissues were fixed in 4% paraformaldehyde, and whole-mount sections of paraffin-embedded lungs were stained with hematoxylin and eosin (H&E). The histopathologic score (HPS) was determined according to published protocols by a single pathologist who was unaware of the treatment status and groups of the animals ([Cimolai et al., 1992]). The HPS was based on individual grading of peribronchiolar/bronchial infiltrate, bronchiolar/bronchial luminal exudate, perivascular infiltrate, and parenchymal pneumoniae.
# Mycoplasma pneumoniae = test: In vivo pharmacodynamic study: Mycoplasma pneumoniae loads in BALF of infected mice; design: species or system BALB/c mice; details: for MPcounts in BALF (AV): group AV; for MPcounts in BALF: individual mice
# Experimental: as §1, §2
# IFN-γ = IFN-γ in BALF of M. pneumoniae-infected mice (ELISA); format: in vivo, BALB/c mice; details: for IFN-γ in BALF (AV): group AV; for IFN-γ in BALF: individual mice
# Experimental: as §1, §2
# [2] = compound 16C 20 mg/kg IM, 192 h
# [3] = compound 16C 40 mg/kg IM, 192 h
# [4] = compound 16C 80 mg/kg IM, 192 h
# [5] = M. pneumoniae-infected mice, 20mg/kg, intramuscular, n=13-15
# [6] = M. pneumoniae-infected mice, 40mg/kg, intramuscular, n=13-15
# [7] = M. pneumoniae-infected mice, 80mg/kg, intramuscular, n=13-15
# [8] = compound 16C 40 mg/kg IM, from HPS at 192 h
# [9] = compound 16C 80 mg/kg IM, from HPS at 192 h
compound,measurement,setting,value
"C=CC1(C)CC(OC(=O)CSc2ccc(NC(=O)Cc3ccc([N+](=O)[O-])cc3)cc2)C2(C)C(C)CCC3(CCC(=O)C32)C(C)C1O (centres unmarked) [compound 16C, 22–((4-((4-nitrophenyl)acetamido)phenyl)thio)deoxypleuromutilin]",CXCL1 in BALF (AV),"CXCL1; compound 16C 20 mg/kg IM, 96 h",48.0123 pg/mL
same,CXCL1 in BALF,"CXCL1; compound 16C 20 mg/kg IM, 96 h",56.3478 pg/mL and 48.458 pg/mL and 47.2524 pg/mL and 45.2286 pg/mL and 42.7748 pg/mL
same,CXCL1 in BALF (AV),CXCL1; [2],38.192 pg/mL
same,CXCL1 in BALF,CXCL1; [2],48.0568 pg/mL and 31.7563 pg/mL and 40.2912 pg/mL and 33.499 pg/mL and 37.352 pg/mL and 38.1966 pg/mL
same,CXCL1 in BALF (AV),"CXCL1; compound 16C 40 mg/kg IM, 96 h",22.7681 pg/mL
same,CXCL1 in BALF,"CXCL1; compound 16C 40 mg/kg IM, 96 h",15.9622 pg/mL and 24.4156 pg/mL and 34.1197 pg/mL and 28.066 pg/mL and 17.0225 pg/mL
same,CXCL1 in BALF (AV),CXCL1; [3],28.9333 pg/mL
same,CXCL1 in BALF,CXCL1; [3],23.476 pg/mL and 20.5799 pg/mL and 29.3957 pg/mL and 43.4026 pg/mL and 16.4951 pg/mL and 40.2505 pg/mL
same,CXCL1 in BALF (AV),"CXCL1; compound 16C 80 mg/kg IM, 96 h",24.5788 pg/mL
same,CXCL1 in BALF,"CXCL1; compound 16C 80 mg/kg IM, 96 h",33.6631 pg/mL and 23.7534 pg/mL and 35.719 pg/mL and 18.1872 pg/mL and 17.5299 pg/mL and 18.6204 pg/mL
same,CXCL1 in BALF (AV),CXCL1; [4],39.611 pg/mL
same,CXCL1 in BALF,CXCL1; [4],45.7844 pg/mL and 28.8637 pg/mL and 42.9442 pg/mL and 41.3398 pg/mL and 45.9405 pg/mL and 32.7936 pg/mL
same,Recovery,[1]; [5],20.00%
same,Response,[1]; [5],93.33%
same,Recovery,[1]; [6],35.7%
same,Response,[1]; [6],100%
same,Recovery,[1]; [7],50%
same,Response,[1]; [7],100%
same,HPS value (mean),"[1]; compound 16C 20 mg/kg IM, 96 h",1.08
same,HPS,"[1]; compound 16C 20 mg/kg IM, 96 h",0.5 and 1 and 1.5
same,HPS value (mean),[1]; [2],1
same,HPS,[1]; [2],1 and 0 and 4 and 0.5 and 1.5
same,Recovery,"[1]; compound 16C 20 mg/kg IM, from HPS at 192 h (HPS reduced to 0)",20.00%
same,Recovery,"[1]; compound 16C 20 mg/kg IM, from HPS at 192 h (HPS reduced to 0), listed as Compound16C",20%
same,Response,"[1]; compound 16C 20 mg/kg IM, from HPS at 192 h, n = 13–15",93.33%
same,HPS value (mean),"[1]; compound 16C 40 mg/kg IM, 96 h",1
same,HPS,"[1]; compound 16C 40 mg/kg IM, 96 h",1 and 1.5 and 0
same,HPS value (mean),[1]; [3],0.46
same,HPS,[1]; [3],0.5 and 0 and 2 and 1
same,Recovery,[1]; [8],35.7%
same,Response,[1]; [8],100%
same,HPS value (mean),"[1]; compound 16C 80 mg/kg IM, 96 h",0.75
same,HPS,"[1]; compound 16C 80 mg/kg IM, 96 h",0.5 and 0 and 1
same,HPS value (mean),[1]; [4],0.43
same,HPS,[1]; [4],0 and 0.5 and 1 and 1.5
same,Recovery,[1]; [9],50%
same,Response,[1]; [9],100%
same,microbial reduction in BALF,"Mycoplasma pneumoniae; compound 16C 20 mg/kg IM twice daily 4 d, 96 h",1.40 log10 CFU/mL
same,MPcounts in BALF (AV),"Mycoplasma pneumoniae; compound 16C 20 mg/kg IM, 96 h",4.601 Log10CFU/mL
same,MPcounts in BALF,"Mycoplasma pneumoniae; compound 16C 20 mg/kg IM, 96 h",5.04 Log10CFU/mL and 4.682 Log10CFU/mL and 3.8451 Log10CFU/mL and 4.709 Log10CFU/mL and 4.293 Log10CFU/mL and 5.039 Log10CFU/mL
same,MPcounts in BALF (AV),Mycoplasma pneumoniae; [2],3.598 Log10CFU/mL
same,MPcounts in BALF,Mycoplasma pneumoniae; [2],3.747 Log10CFU/mL and 3.757 Log10CFU/mL and 3.482 Log10CFU/mL and 3.599 Log10CFU/mL and 3.64 Log10CFU/mL and 3.366 Log10CFU/mL
same,microbial reduction in BALF,"Mycoplasma pneumoniae; compound 16C 40 mg/kg IM twice daily 4 d, 96 h",2.02 log10 CFU/mL
same,MPcounts in BALF (AV),"Mycoplasma pneumoniae; compound 16C 40 mg/kg IM, 96 h",3.896 Log10CFU/mL
same,MPcounts in BALF,"Mycoplasma pneumoniae; compound 16C 40 mg/kg IM, 96 h",4.213 Log10CFU/mL and 4.174 Log10CFU/mL and 3.6574 Log10CFU/mL and 4.285 Log10CFU/mL and 3.708 Log10CFU/mL and 3.341 Log10CFU/mL
same,MPcounts in BALF (AV),Mycoplasma pneumoniae; [3],3.662 Log10CFU/mL
same,MPcounts in BALF,Mycoplasma pneumoniae; [3],3.675 Log10CFU/mL and 3.607 Log10CFU/mL and 3.633 Log10CFU/mL and 3.784 Log10CFU/mL and 3.322 Log10CFU/mL and 3.954 Log10CFU/mL
same,microbial reduction in BALF,"Mycoplasma pneumoniae; compound 16C 80 mg/kg IM twice daily 4 d, 96 h",2.68 log10 CFU/mL
same,microbial reduction in BALF,"Mycoplasma pneumoniae; compound 16C 80 mg/kg IM twice daily 4 d, 192 h",2.65 log10 CFU/mL
same,MPcounts in BALF (AV),"Mycoplasma pneumoniae; compound 16C 80 mg/kg IM, 96 h",3.141 Log10CFU/mL
same,MPcounts in BALF,"Mycoplasma pneumoniae; compound 16C 80 mg/kg IM, 96 h",3.314 Log10CFU/mL and 3.255 Log10CFU/mL and 3.244 Log10CFU/mL and 3.15 Log10CFU/mL and 2.656 Log10CFU/mL and 3.223 Log10CFU/mL
same,MPcounts in BALF (AV),Mycoplasma pneumoniae; [4],3.173 Log10CFU/mL
same,MPcounts in BALF,Mycoplasma pneumoniae; [4],3.05 Log10CFU/mL and 3.185 Log10CFU/mL and 3.04 Log10CFU/mL and 3.438 Log10CFU/mL and 3.295 Log10CFU/mL and 3.0308 Log10CFU/mL
same,IFN-γ in BALF (AV),"IFN-γ; compound 16C 20 mg/kg IM, 96 h",61.9115 pg/mL
same,IFN-γ in BALF,"IFN-γ; compound 16C 20 mg/kg IM, 96 h",66.1116 pg/mL and 70.7764 pg/mL and 60.3497 pg/mL and 48.4263 pg/mL and 63.8937 pg/mL
same,IFN-γ in BALF (AV),IFN-γ; [2],53.7268 pg/mL
same,IFN-γ in BALF,IFN-γ; [2],69.6648 pg/mL and 70.9988 pg/mL and 47.7654 pg/mL and 32.8171 pg/mL and 65.2242 pg/mL and 35.8907 pg/mL
same,IFN-γ in BALF (AV),"IFN-γ; compound 16C 40 mg/kg IM, 96 h",31.4597 pg/mL
same,IFN-γ in BALF,"IFN-γ; compound 16C 40 mg/kg IM, 96 h",36.9995 pg/mL and 36.109 pg/mL and 18.2065 pg/mL and 31.1186 pg/mL and 39.6709 pg/mL and 26.6536 pg/mL
same,IFN-γ in BALF (AV),IFN-γ; [3],43.7114 pg/mL
same,IFN-γ in BALF,IFN-γ; [3],35.5746 pg/mL and 45.5493 pg/mL and 40.3832 pg/mL and 54.2951 pg/mL and 42.5204 pg/mL and 43.9456 pg/mL
same,IFN-γ in BALF (AV),"IFN-γ; compound 16C 80 mg/kg IM, 96 h",33.085 pg/mL
same,IFN-γ in BALF,"IFN-γ; compound 16C 80 mg/kg IM, 96 h",42.8939 pg/mL and 46.612 pg/mL and 43.7193 pg/mL and 17.0898 pg/mL and 29.6102 pg/mL and 18.5846 pg/mL
same,IFN-γ in BALF (AV),IFN-γ; [4],30.1626 pg/mL
same,IFN-γ in BALF,IFN-γ; [4],41.5193 pg/mL and 31.3845 pg/mL and 29.0646 pg/mL and 27.0198 pg/mL and 28.7918 pg/mL and 26.4748 pg/mL and 26.8835 pg/mL
